In patent US20060002989A1, “Formulations of sumatriptan for absorption across biological membranes, and methods of making and using the same” (priority 2004, published 2006):
Like-named read-outs stand apart in the source and are kept apart here.

Tested on: pig buccal membrane
Assay: Trans-buccal absorption across pig buccal epithelial membrane in side-by-side diffusion cells
Conditions: for Steady-state flux, Fs: pig, 6 h
Procedure: In a side-by-side diffusion experiment, there exists a reservoir on each side of the test biological membrane. […] The steady state flux of absorption, Fs, is calculated by the formula, Fs=(dQ/dt)/A=(dC/dt)×(V/A), wherein Q is the amount of drug permeated, C is the concentration of the drug, A is the permeation area, V is the chamber volume in a side-by-side diffusion cell, and t is the time period over which the drug permeation is monitored. Fs can be determined from the slope of the line attained from plotting the cumulative amount of drug permeated per unit area as a function of time.
Freshly prepared buccal tissue from pigs was used to prepare the buccal epithelial membrane. A dermatometer was used to obtain the buccal epithelial membrane by separating it from the underlying connective tissue. The buccal membranes were used within 3-4 hours of removal of buccal tissue from the pigs.
The buccal epithelial membrane was mounted between side-by-side diffusion cells. The exposed area of the buccal membrane was approximately 0.64 cm^2. […] The final volume of the liquid in the donor-side was 3.5 ml and the volume in the receptor-side was 3.5 ml.
The diffusion system was maintained at 37° C. throughout the experiment. At predetermined intervals over a period of 6 hours, 150 μl of the solution from the receptor-side was withdrawn for HPLC analysis. The receptor-side was refilled with the same volume (150 μl) of KRB solution.
HPLC analysis of the solution withdrawn from the receptor-side was performed using a Waters 2695 separation module HPLC system equipped with a reverse phase C18 column (150 mm×3.9 mm ID, 5 μm) (Waters Corp., Milford, Mass.). The mobile phase was 88% phosphate buffer (0.05 M NH4H2PO4/H3PO4, pH 3.3) and 12% acetonitrile. […] The software used for HPLC assay data analysis was Millenium 32 (Waters Corp., Milford, Mass.).
Microsoft Excel 2000 was used to calculate the steady state flux value of the absorption of the drug across the buccal membrane. The steady state flux (Fs)=(dQ/dt)/A=(dC/dt)×(V/A), wherein Q is the amount of drug permeated, C is concentration of the drug, A is the permeation area, V is the chamber volume, and t is the time period over which the drug permeation is monitored.
The receptor-side contained 3.5 ml of KRB solution.

| effect of absorption enhancer on permeation of sumatriptan succinate across the buccal membrane | Compound | effect of absorption enhancer on permeation of sumatriptan succinate across the buccal membrane (result in words) | also measured |
| --- | --- | --- | --- |
| – | CCCCCCCCCCCC(=O)[O-].[Na+] [sodium laurate] | enhanced the permeation | – |
| – | CNS(=O)(=O)Cc1ccc2[nH]cc(CCN(C)C)c2c1 [Base alone, 3-[2-(dimethylamino)ethyl]-N-methyl-indole-5-methanesulphonamide, reference compound] | – | effect of absorption enhancers on absorption of sumatriptan base: not significantly enhanced; Steady-state flux, Fs (6.8 mM): 1.6 ± 1.5 ng/cm^2/min |
| – | CCCCCCCCCC(=O)[O-].[Na+] [sodium caprate] | enhanced the permeation | effect of absorption enhancer on permeation of sumatriptan succinate across the buccal membrane (result in words, listed as Sodium caprate): most dramatic effect |
| only minor enhancing effects | lysolecithin | – | – |
| – | CNS(=O)(=O)Cc1ccc2[nH]cc(CCN(C)C)c2c1.O=C(O)CCC(=O)O [Salt (SS) alone, sumatriptan succinate, reference compound] | – | Steady-state flux, Fs (12 mM): 6.0 ± 6.6 ng/cm^2/min |
| – | CCCCCCCC(=O)[O-].[Na+] [sodium caprylate] | enhanced the permeation | – |
| – | CCCCCCCCCCCCOS(=O)(=O)[O-].[Na+] [sodium lauryl sulfate (SLS), sodium lauryl sulfate] | enhanced the permeation | – |
| only minor enhancing effects | C[C@H](CCC(=O)NCC(=O)[O-])[C@H]1CC[C@H]2[C@@H]3[C@H](O)C[C@@H]4C[C@H](O)CC[C@]4(C)[C@H]3C[C@H](O)[C@]12C.[Na+] [sodium glycocholate] | – | – |

| Compound | effect of absorption enhancer on permeation of sumatriptan succinate across the buccal membrane | effect of absorption enhancer on permeation of sumatriptan succinate across the buccal membrane (result in words) | also measured |
| --- | --- | --- | --- |
| CCCCCCCCCCCC(=O)O [lauric acid] | only minor enhancing effects | – | – |
